# Earlier results as cited in patent publication US20230404944A1, “CANNABINOID ENCAPSULATION TECHNOLOGY” (ZELIRA THERAPEUTICS OPERATIONS PTY LTD, priority 2020, published 2023).
smiles,measurement,setting,value
"C=C(C)[C@@H]1CCC(C)=C[C@H]1c1c(O)cc(CCCCC)cc1O [CBD, cannabidiol]",Oral bioavailability in plasma,plasma,approximately 6%
same,Oral bioavailability in tissues,tissues,~1%
